Assay results as given in patent publication US10682421B2, “Nanoparticle composition for use in targeting cancer stem cells and method for treatment of cancer” (City University of Hong Kong, priority 2015, dated 2020).

Tested on: LCSCs
Test: In vitro thermotherapy and chemotherapy under AMF or water bath, MTT assay
Format: cell-based, human
Settings: 37° C. under AMF for 30 min, 100 mg/mL for 1 h
Method: The AMF was generated by a 5 cm diameter 8-turn induction coil powered by a 3 kW alternating magnetic field generator. LCSCs were seeded in the 6-well plate at a density of 5×10^4 cells/mL. After 24 h incubation, cells were separately treated with 100 mg/mL CD20-Fe3O4@SiNPs, CD20-HSPI&Fe3O4@SiNPs, Fe3O4@SiNPs, HSPI&Fe3O4@SiNPs, SiNPs, and HSPI for 1 h. Cells without treatment were used as control. Following two washes with PBS, cells were placed inside the coil and heated to a defined temperature (between 37 and 50° C.) for 30 min. While frequency was kept constant at 350 kHz and temperature was monitored by using a thermometer immersed in a test tube containing 2 mL of solution. The traditional heating method (water bath heater) was used to compare with AMF heating. Cell survival was assessed by MTT assay.

Question: `CO[C@H]1/C=C\C=C(/C)C(=O)NC2=CC(=O)C(NCCN(C)C)=C(C[C@@H](C)C[C@H](OC)[C@H](O)[C@@H](C)/C=C(\C)[C@@H]1OC(N)=O)C2=O` [HSPI, 17-(Dimethylaminoethylamino)-17-demethoxygeldanamycin] was tested. Which cell survival rate did it give?
Answer: Its cell survival rate is 77%.
